Data: BigSolDB 2.1

Compound Nc1cccc(S(=O)(=O)c2cccc(N)c2)c1 has a solubility (mole fraction) (in isobutanol, 283.15 K) of 0.000586, a solubility (mole fraction) (in isobutanol, 288.15 K) of 0.000665 and a solubility (mole fraction) (in isobutanol, 293.15 K) of 0.000784. It also gave a solubility (mole fraction) (in isobutanol, 298.15 K) of 0.000952, a solubility (mole fraction) (in isobutanol, 303.15 K) of 0.00115 and a solubility (mole fraction) (in isobutanol, 308.15 K) of 0.00137. For the same compound, the solubility (mole fraction) (in isobutanol, 313.15 K) was 0.00166, the solubility (mole fraction) (in isobutanol, 318.15 K) was 0.002 and the solubility (mole fraction) (in isobutanol, 323.15 K) was 0.00234. The solubility (mole fraction) (in isobutanol, 328.15 K) was 0.00271, the solubility (mole fraction) (in isopropanol, 283.15 K) was 0.00106 and the solubility (mole fraction) (in isopropanol, 288.15 K) was 0.00121. For the same compound, the solubility (mole fraction) (in isopropanol, 293.15 K) was 0.00148, the solubility (mole fraction) (in isopropanol, 298.15 K) was 0.00196 and the solubility (mole fraction) (in isopropanol, 303.15 K) was 0.00258. The solubility (mole fraction) (in isopropanol, 308.15 K) was 0.00326, the solubility (mole fraction) (in isopropanol, 313.15 K) was 0.00406 and the solubility (mole fraction) (in isopropanol, 318.15 K) was 0.005. For the same compound, the solubility (mole fraction) (in isopropanol, 323.15 K) was 0.00611, the solubility (mole fraction) (in isopropanol, 328.15 K) was 0.00731 and the solubility (mole fraction) (in methanol, 283.15 K) was 0.00319. For the same compound, the solubility (mole fraction) (in methanol, 288.15 K) was 0.00351, the solubility (mole fraction) (in methanol, 293.15 K) was 0.00397 and the solubility (mole fraction) (in methanol, 298.15 K) was 0.00482. It also gave a solubility (mole fraction) (in methanol, 303.15 K) of 0.00604, a solubility (mole fraction) (in methanol, 308.15 K) of 0.00744 and a solubility (mole fraction) (in methanol, 313.15 K) of 0.00905. For the same compound, the solubility (mole fraction) (in methanol, 318.15 K) was 0.0107, the solubility (mole fraction) (in methanol, 323.15 K) was 0.0125 and the solubility (mole fraction) (in methanol, 328.15 K) was 0.0152. It also gave a solubility (mole fraction) (in n-butanol, 283.15 K) of 0.00109, a solubility (mole fraction) (in n-butanol, 288.15 K) of 0.00121 and a solubility (mole fraction) (in n-butanol, 293.15 K) of 0.00142. The solubility (mole fraction) (in n-butanol, 298.15 K) was 0.00171, the solubility (mole fraction) (in n-butanol, 303.15 K) was 0.00205 and the solubility (mole fraction) (in n-butanol, 308.15 K) was 0.00246. The solubility (mole fraction) (in n-butanol, 313.15 K) was 0.00294, the solubility (mole fraction) (in n-butanol, 318.15 K) was 0.00343 and the solubility (mole fraction) (in n-butanol, 323.15 K) was 0.00396. The solubility (mole fraction) (in n-butanol, 328.15 K) was 0.00452, the solubility (mole fraction) (in n-heptanol, 283.15 K) was 0.000699 and the solubility (mole fraction) (in n-heptanol, 288.15 K) was 0.000776. For the same compound, the solubility (mole fraction) (in n-heptanol, 293.15 K) was 0.000898, the solubility (mole fraction) (in n-heptanol, 298.15 K) was 0.00106 and the solubility (mole fraction) (in n-heptanol, 303.15 K) was 0.0013. For the same compound, the solubility (mole fraction) (in n-heptanol, 308.15 K) was 0.0016, the solubility (mole fraction) (in n-heptanol, 313.15 K) was 0.002 and the solubility (mole fraction) (in n-heptanol, 318.15 K) was 0.00242. For the same compound, the solubility (mole fraction) (in n-heptanol, 323.15 K) was 0.0029, the solubility (mole fraction) (in n-heptanol, 328.15 K) was 0.00346 and the solubility (mole fraction) (in n-propanol, 283.15 K) was 0.00142. For the same compound, the solubility (mole fraction) (in n-propanol, 288.15 K) was 0.00152, the solubility (mole fraction) (in n-propanol, 293.15 K) was 0.00177 and the solubility (mole fraction) (in n-propanol, 298.15 K) was 0.00214. It also gave a solubility (mole fraction) (in n-propanol, 303.15 K) of 0.00254, a solubility (mole fraction) (in n-propanol, 308.15 K) of 0.00301 and a solubility (mole fraction) (in n-propanol, 313.15 K) of 0.00356. It also gave a solubility (mole fraction) (in n-propanol, 318.15 K) of 0.00418, a solubility (mole fraction) (in n-propanol, 323.15 K) of 0.00496 and a solubility (mole fraction) (in n-propanol, 328.15 K) of 0.0059. The solubility (mole fraction) (in water, 283.15 K) was 1.52e-05, the solubility (mole fraction) (in water, 288.15 K) was 1.9e-05 and the solubility (mole fraction) (in water, 293.15 K) was 2.51e-05. The solubility (mole fraction) (in water, 298.15 K) was 3.32e-05, the solubility (mole fraction) (in water, 303.15 K) was 4.29e-05 and the solubility (mole fraction) (in water, 308.15 K) was 5.62e-05. For the same compound, the solubility (mole fraction) (in water, 313.15 K) was 7.79e-05, the solubility (mole fraction) (in water, 318.15 K) was 0.000106 and the solubility (mole fraction) (in water, 323.15 K) was 0.000145. For the same compound, the solubility (mole fraction) (in water, 328.15 K) was 0.000198.
